Where two headings read alike, the source gives them in different places.
Test system: CXCR4 dependent pseudotyped virus (NL4-3)
Assay: Single cycle HIV infection assay, pseudotyped luciferase reporter virus, time of addition
Conditions: for inhibition of pseudotyped virus expression: all time points of addition, 0.2 μM; for activity at 0.2 µM: read-out: viral infection level, % of control levels

SMILES	inhibition of pseudotyped virus expression	inhibition of pseudotyped virus expression (listed as protease inhibitor)	activity at 0.2 µM (Human immunodeficiency virus 1, NL43, 10 h) [%]	activity at 0.2 µM (Human immunodeficiency virus 1, NL43, 14 h) [%]	time post virus exposure within which addition suppresses pseudotyped virus replication (time of addition, DP178 20 μg/ml, mAb#19 20 μg/ml, nevirapine 0.2 μM, Tat inhibitor 50 μM)
Cc1c(O)cccc1C(=O)N[C@@H](CSc1ccccc1)[C@H](O)CN1C[C@H]2CCCC[C@H]2C[C@H]1C(=O)NC(C)(C)C [nelfinavir]	ineffectual	does not, therefore, inhibit			
Cc1ccnc2c1NC(=O)c1cccnc1N2C1CC1 [nevirapine]			67	85	approximately 10 hours

From patent US7037645B2, “Methods for identification of CDS8+ suppressor molecules” (priority 2000, dated 2006)
